Source: ChEMBL document CHEMBL1156506, “Changes to the HIV long terminal repeat and to HIV integrase differentially impact HIV integrase assembly, activity, and the binding of strand transfer inhibitors” (J Biol Chem, 2007)

Assay: Binding affinity to HIV wild type integrase
Set-up: species or system Human immunodeficiency virus

Kd: 0.021 µM
SMILES: [3H]C([3H])([3H])n1c(N2CCCCS2(=O)=O)nc(C(=O)NCc2ccc(F)cc2)c(O)c1=O
